Laboratory results published in patent US20140194361A1, “Vault Agents for Treating Chronic Kidney Disease” (priority 2010, published 2014).
“Also recorded” adds a separate entry of the source. No end group written: not given here.

Legend:
integrin = assay: experimentally verified RGD inhibitors blocking fibronectin adhesion to integrin
Excerpt: Preferably, the synthetic analog inhibitors should have higher affinity to the integrin than the RGD loop of fibronectin. […] These two cyclic peptides were also used as reference structures to construct new inhibitors.
Combining the experimental results with the data obtained from our calculations we were able to predict the efficiency of the various inhibitors and to determine which structure is the most favorable fragment with regard to integrin binding energy.

[1] = test system: type 1 diabetic Ins2Akita/+ mice; assay: prevention of progression of DN in type 1 diabetic Ins2Akita/+ mice; type: in vivo
Protocol: (§1) We investigated the ability of cyclic GRGDSP vs. GRGESP in a pilot study to prevent accumulation of glomerular lesions in early DN in 20 week old diabetic type 2 db/db vs non-diabetic db/m and diabetic type 1 Ins2Akita+ vs. non-diabetic Ins2+/+ mice with GRGESP and […] and observed up to 52% reduction in albuminuria in the type 2 diabetic mice (FIGS. 1-2) and ˜70% reduction in albuminuria in the type 1 diabetic mice (FIG. 6).

[2] = test system: type 2 diabetic db/db mice; assay: prevention of progression of early DN in type 2 diabetic db/db mice; type: in vivo
Excerpt: There was no change in blood pressure or plasma glucose in either the diabetic or non-diabetic animals.
There was no change in creatinine clearance in the cyclic-GRGESP-control peptide treated diabetic animals
In addition, glomerular volume measured by fractional volume of expansion by electron microscopy was normalized, p<0.05 after 12 weeks of treatment.
as §1

[3] = test system: extracellular matrix and signaling proteins of DN; assay: expression of extracellular matrix and signaling proteins of DN in cells (immunoblotting); type: cell-based; conditions: for expression of extracellular matrix and signaling proteins of DN: serum-starved 48 h, treated 48 h, vs RGE/CRGE peptides
Protocol: Cells were serum-starved for 48 h and then untreated or treated with or without the unmodified RGD/RGE and modified CRGD/CRGE peptide for 48 h.

[4] = test system: aged type 2 diabetic db/db mice; assay: regression of established DN in aged type 2 diabetic db/db mice; type: in vivo
[5] = 2400 μg/kg, after 4, 8 and 12 weeks of treatment
[6] = type 2 and type 1 diabetic mice, 400-2400 μg/kg

cyc-RGDSPSG (cyclised or stapled)
efficiency as inhibitor (experimentally verified) (integrin): efficient inhibitors

GRGDSP [cyclic-GRGDSP]
albuminuria measured as albumin-to-creatinine ratio [1, 5]: ameliorated albuminuria | glomerular expression of extracellular matrix proteins (fibronectin, collagen I and collagen IV) ([1]; after 12 weeks of treatment): reduced glomerular expression of extracellular matrix proteins | reduction in albuminuria ([1]; type 1 diabetic mice, 400-2400 μg/kg): ~70% | amelioration of albumin excretion rate [2, 5]: up to 52% | glomerular extracellular matrix expansion (periodic acid Schiff staining) ([2]; after 12 weeks of treatment): prevented glomerular extracellular matrix expansion | glomerular volume (fractional volume of expansion by electron microscopy) ([2]; after 12 weeks of treatment): normalized | albumin excretion rate in control animals ([2]; control type 2 diabetic animals, 2400 μg/kg): did not alter | albumin excretion rate ([2]; db/db vs db/m mice, 400-2400 μg/kg, after 4 weeks of treatment, vs cyclic-GRGESP control): ameliorating albumin excretion rate in a dose dependent manner | DN signaling proteins by Western blot [2, 6]: significant reduction | glomerular expression extracellular matrix by Periodic Acid Schiff and electron microscopy [2, 6]: significant reduction | reduction in albuminuria ([2]; type 2 diabetic mice, 400-2400 μg/kg): up to 52% | expression of extracellular matrix and signaling proteins of DN [3]: significantly reduced | reduction in albuminuria ([4]; 21-week-old db/db mice, 2400-4800 μg/kg, 4 weeks i.p.): up to 71% | expression of fibronectin, collagen I, collagen IV, TGF-β, ERK/MAPK and Nox4 (Western blot of kidney cortical tissues) ([4]; 2400-4800 μg/kg, 4 weeks i.p.): reduced expression | glomerulosclerosis index (Periodic Schiff stained kidney section) ([4]; 2400-4800 μg/kg, 4 weeks i.p.): significant reduction | mesangial expansion ([4]; 2400-4800 μg/kg, 4 weeks i.p.): reduced mesangial expansion | reduction of albumin excretion rate ([4]; 3600 and 4800 μg/kg, 4 weeks intraperitoneal, dose-dependent): up to 71% | glomerular extracellular matrix proteins (fibronectin, collagen I and collagen IV) ([4]; 3600 and 4800 μg/kg, 4 weeks, dose-dependent): reduced glomerular extracellular matrix proteins | expression of known signaling molecules of DN ([4]; 3600 and 4800 μg/kg, dose-dependent): reduced the expression

CGRGDSP (also: cyclic peptide, ring closure not given here) [cyclic GRGDSP peptide with an added cysteine linker (free cysteine residue)]
integrin-mediated cellular signaling by TGF-β, AKT and STAT3 ([3]; kinetic studies and immunoblotting): inhibition | expression of extracellular matrix and signaling proteins of DN [3]: significantly reduced

cyc-RGDSPG
efficiency as inhibitor (experimentally verified) (integrin): successful candidate of inhibitors; also recorded: efficient inhibitors

cyc-RGDSPCG
efficiency as inhibitor (experimentally verified) (integrin): efficient inhibitors
